Measured values as given in patent US12144819B2, “Pharmaceutical composition and use” (SpineThera, priority 2012, dated 2024).

Assays:
[1] = Epidural administration in canine subjects using fluoroscopically-guided injection; type: in vivo, beagles; conditions: for drug released in-vivo (elution profile): procedure A1 microparticles
Source text: This exemplary approach is a modified version of that described by Cohen (vide supra). Male and female beagles can be acclimated and subjected to baseline neurologic and clinical chemistry examinations. Prior to treatment dogs can be anesthetized with propofol. The injection site can be shaved, and a 19-gauge epidural Touhy needle can be inserted at the L6-7 or L7-S1 interspace. A 22-gauge catheter can be threaded 8-10 cm to approximately the L2-L3 level. The position of the catheter can be verified by injection of contrast media under fluoroscopy. Two (2) mL of an aqueous suspension of microparticles, prepared according to procedure A1 above, can be injected over a period of about 2 minutes. After about 10 minutes the catheter can be removed. Before and after surgery, subject baseline measurements can be obtained, including, for example, temperature and specific behavioral measures (pain tolerance, reflex, mobility, etc.). Before injection, and every 2 days after injection for 84 days, heart rate, blood pressure in the tail, spinal reflexes, sensory and pain responses, proprioception, gait and movement, cranial nerve function, and fundoscopic examination data can be recorded to observe the safety of the injected pharmaceutical composition. Blood samples can be collected prior to injection, then at 1, 2, 4, 8, 24, and 72 hour intervals after injection, and every 7 days thereafter to analyze for the pharmaceutical agent and its metabolized forms. At scheduled intervals, necropsy and histopathology can be performed as described by Cohen, vide supra, in a sub-set of animals.
Without wishing to be bound by theory, pharmaceutical compositions of the type described herein are not expected to elicit any significant or appreciable degree of inflammatory response or cause necrosis. Histological examination may reveal the microparticles to be localized and agglomerated within the epidural space at the site of injection with no evidence of the presence of the injection vehicle after 2 about days. Contents of the treated epidural pocket can be recovered by dissection. The injected microparticles can be isolated from epidural tissue and assayed for drug concentration to determine an in-vivo elution profile. It can be reasonably expected that dexamethasone acetate will be released continuously over 12 weeks, with about 20% of the drug released in 3 days, 50% in 25 days, and 80% in 70 days, with complete microparticle polymer degradation in about 16 weeks.

[2] = In-vitro elution of the API from the microparticles in PBS; type: physicochemical
Protocol: In-vitro elution of the API from the microparticles can be determined by adding a known amount of the microparticles to 5 mL phosphate buffered saline (PBS) solution at a pH 7.4, and maintaining a constant temperature of 37° C. At selected time intervals, a 2 mL aliquot can be withdrawn through a 0.4 μm filter for analysis; the amount of the aliquot withdrawn can be replenished with an equal amount of preheated PBS. The concentration of the API in the aliquot can be determined according to known methods such as HPLC. Sampling intervals can be adjusted to maintain drug concentration below sink conditions in the test vials.

Q: With “9 alpha-fluoro-11-beta, 17-alpha, 21-trihydroxy-16 alpha-methylpregna-1,4-diene-3,20-dione 21-acetate [dexamethasone acetate]” as the substance, how does the “duration of continuous release in-vivo” value [1] read?
A: The value was 12 weeks.

Q: And the “time to complete microparticle polymer degradation” value [1]?
A: The value was “about 16 weeks”.

Q: And the “drug released in-vivo (elution profile)” value ([1]; in 3 days)?
A: Its value is “about 20%”.

Q: And the “drug released in-vivo (elution profile)” value ([1]; in 25 days)?
A: Its value is about 50%.

Q: And the “drug released in-vivo (elution profile)” value ([1]; in 70 days)?
A: Its value is about 80%.

Q: What about the “duration of continuous release in-vitro” value [2] of the same substance?
A: The value was 12 weeks.

Q: What about the drug released in-vitro ([2]; in 3 days) of the same substance?
A: Its drug released in-vitro is “about 10%”.

Q: What about the drug released in-vitro ([2]; in 25 days) of the same substance?
A: The drug released in-vitro was about 25%.

Q: And the drug released in-vitro ([2]; in 70 days)?
A: The drug released in-vitro was about 40%.
